Read-outs that look alike come from different tables or passages of the source.
Legend:
Format in all cases: cell-based
E. coli S 30 = assay: MIC on Muller Hinton Agar (CLSI); conditions: Escherichia coli
Experimental: (§1) The antibacterial activity of combinations according to the invention was investigated against various bacterial strains. In a typical study, minimum inhibitory concentrations (MIC) were determined using Muller Hinton Agar (MHA) (BD, USA) according to Clinical and Laboratory Standards Institute (CLSI) recommendations, (Clinical and Laboratory Standards Institute (CLSI), Performance Standards for Antimicrobial Susceptibility Testing, 20th Informational Supplement, M 100-S20, Volume 30, No. 1, 2010). In short, the inocula were adjusted to deliver about 10^4 colony forming units (CFU) per spot with a multipoint inoculator (Applied Quality Services, UK). The plates were pored with doubling concentration range of the test combinations according to invention containing MHA. The plates were inoculated and were incubated at 35° C. for 18 hours.

E. coli S 33 = assay: MIC on Muller Hinton Agar (CLSI); conditions: Escherichia coli
Experimental: as §1

E. coli S 330 = assay: MIC on Muller Hinton Agar (CLSI); conditions: Escherichia coli
Experimental: as §1

E. coli S 35 = assay: MIC on Muller Hinton Agar (CLSI); conditions: Escherichia coli
Experimental: as §1

E. coli S 16 = assay: MIC on Muller Hinton Agar (CLSI); conditions: Escherichia coli
Experimental: as §1

K. pneumoniae B 77 = assay: MIC on Muller Hinton Agar (CLSI); conditions: Klebsiella pneumoniae
Experimental: as §1

[1] = system: P. aeruginosa H 113720186; assay: MIC on Muller Hinton Agar (CLSI); conditions: Pseudomonas aeruginosa
Experimental: as §1

K. pneumoniae S 50 = assay: MIC on Muller Hinton Agar (CLSI); conditions: Klebsiella pneumoniae
Experimental: as §1

K. pneumoniae S 48 = assay: MIC on Muller Hinton Agar (CLSI); conditions: Klebsiella pneumoniae
Experimental: as §1

P. aeruginosa S 504 = assay: MIC on Muller Hinton Agar (CLSI); conditions: Pseudomonas aeruginosa
Experimental: as §1

E. coli M 44 = assay: MIC on Muller Hinton Agar (CLSI); conditions: Escherichia coli
Experimental: as §1

K. pneumoniae NCTC 13439 = assay: MIC on Muller Hinton Agar (CLSI); conditions: Klebsiella pneumoniae
Experimental: as §1

K. pneumoniae B 88 = assay: MIC on Muller Hinton Agar (CLSI); conditions: Klebsiella pneumoniae
Experimental: as §1

P. aeruginosa S 513 = assay: MIC on Muller Hinton Agar (CLSI); conditions: Pseudomonas aeruginosa
Experimental: as §1

P. aeruginosa S 508 = assay: MIC on Muller Hinton Agar (CLSI); conditions: Pseudomonas aeruginosa
Experimental: as §1

K. pneumoniae M 3 = assay: MIC on Muller Hinton Agar (CLSI); conditions: Klebsiella pneumoniae
Experimental: as §1

P. aeruginosa Q-111 = assay: MIC on Muller Hinton Agar (CLSI); conditions: Pseudomonas aeruginosa
Experimental: as §1

[2] = system: clinical isolate of K. pneumoniae S 48 producing metallo beta-lactamases [SHV, TEM, NDM-1]; assay: Time kill study; conditions: for Bacterial count: each agent at 8 mcg/ml, initial count 6.84 log CFU/ml
Experimental: (§2) Typically, freshly grown cultures were diluted to the required cell density (initial starting inoculum) in Cation adjusted Muller Hinton broth medium BD, USA). The antibacterial agents at the required concentrations were added into the culture-containing medium either alone or in combination. The samples were incubated under shaking condition (120 rpm) at 37° C. Enumeration of viable bacterial count was undertaken, every 2 hour, by diluting in normal saline and plating on to the Tryptic Soya Agar plates (BD, USA). The plates were incubated for 24 hours to arrive at the viable bacterial count. […] The decrease of 1 Log CFU/ml, after administration of combination of present invention, in comparison to initial bacterial count corresponds to 90% killing of bacteria. Similarly, 2 Log CFU/ml reductions corresponds to 99% killing of bacteria and 3 Log CFU/ml reductions is equal to 99.9% killing of bacteria.

[3] = system: clinical isolate of K. pneumoniae B 88 producing metallo beta-lactamases [SHV, TEM, NDM-1]; assay: Time kill study; conditions: for Bacterial count: each agent at 8 mcg/ml, initial count 6.18 log CFU/ml
Experimental: as §2

[4] = system: highly resistant strains of E. coli, K. pneumonia and P. aeruginosa; assay: MIC, summary over the strain panel
Experimental: as §1

[5] = used alone at 8 mcg/ml, at the end of 6 hours

## CO/N=C(\C(=O)N[C@@H]1C(=O)N2C(C(=O)[O-])=C(C[N+]3(C)CCCC3)CS[C@H]12)c1csc(N)n1 [Cefepime, cefepime]
E. coli S 30; S30, agent alone, enzymes CMY type, TEM, NDM-1, read-out: MIC
  MIC: > 32 µg/mL
E. coli S 30; S30, with compound of Formula (I) at 8 mcg/ml, read-out: MIC (mcg/ml) of cefepime in presence of a compound of Formula (I) (8 mcg/ml)
  MIC: ≤ 0.015 µg/mL
E. coli S 33; S33, agent alone, enzymes TEM, NDM-1, read-out: MIC
  MIC: > 32 µg/mL
E. coli S 33; S33, with compound of Formula (I) at 8 mcg/ml, read-out: MIC (mcg/ml) of cefepime in presence of a compound of Formula (I) (8 mcg/ml)
  MIC: ≤ 0.015 µg/mL
E. coli S 330; S330, agent alone, enzymes NDM, read-out: MIC
  MIC: > 32 µg/mL
E. coli S 330; S330, with compound of Formula (I) at 8 mcg/ml, read-out: MIC (mcg/ml) of cefepime in presence of a compound of Formula (I) (8 mcg/ml)
  MIC: ≤ 0.015 µg/mL
E. coli S 35; S35, agent alone, enzymes TEM, NDM-1, read-out: MIC
  MIC: > 32 µg/mL
E. coli S 35; S35, with compound of Formula (I) at 8 mcg/ml, read-out: MIC (mcg/ml) of cefepime in presence of a compound of Formula (I) (8 mcg/ml)
  MIC: ≤ 0.015 µg/mL
E. coli S 16; S16, agent alone, enzymes CMY type, TEM, DHA, read-out: MIC
  MIC: > 32 µg/mL
E. coli S 16; S16, with compound of Formula (I) at 8 mcg/ml, read-out: MIC (mcg/ml) of cefepime in presence of a compound of Formula (I) (8 mcg/ml)
  MIC: ≤ 0.015 µg/mL
K. pneumoniae B 77; B77, agent alone, enzymes SHV, TEM, NDM-1, read-out: MIC
  MIC: > 32 µg/mL
K. pneumoniae B 77; B77, with compound of Formula (I) at 8 mcg/ml, read-out: MIC (mcg/ml) of cefepime in presence of a compound of Formula (I) (8 mcg/ml)
  MIC: ≤ 0.25 µg/mL
[1]; H113720186, agent alone, enzymes IMP, read-out: MIC
  MIC: > 32 µg/mL
[1]; H113720186, with compound of Formula (I) at 8 mcg/ml, read-out: MIC (mcg/ml) of cefepime in presence of a compound of Formula (I) (8 mcg/ml)
  MIC: ≤ 0.5 µg/mL
K. pneumoniae S 50; S50, agent alone, enzymes SHV, TEM, NDM-1, read-out: MIC
  MIC: > 32 µg/mL
K. pneumoniae S 50; S50, with compound of Formula (I) at 8 mcg/ml, read-out: MIC (mcg/ml) of cefepime in presence of a compound of Formula (I) (8 mcg/ml)
  MIC: ≤ 0.015 µg/mL
K. pneumoniae S 48; S48, agent alone, enzymes SHV, TEM, NDM-1, read-out: MIC
  MIC: > 32 µg/mL
K. pneumoniae S 48; S48, with compound of Formula (I) at 8 mcg/ml, read-out: MIC (mcg/ml) of cefepime in presence of a compound of Formula (I) (8 mcg/ml)
  MIC: ≤ 0.015 µg/mL
P. aeruginosa S 504; S504, agent alone, enzymes VIM-6, read-out: MIC
  MIC: > 32 µg/mL
P. aeruginosa S 504; S504, with compound of Formula (I) at 8 mcg/ml, read-out: MIC (mcg/ml) of cefepime in presence of a compound of Formula (I) (8 mcg/ml)
  MIC: ≤ 0.06 µg/mL
E. coli M 44; M44, agent alone, enzymes TEM, NDM-1, read-out: MIC
  MIC: > 32 µg/mL
E. coli M 44; M44, with compound of Formula (I) at 8 mcg/ml, read-out: MIC (mcg/ml) of cefepime in presence of a compound of Formula (I) (8 mcg/ml)
  MIC: ≤ 0.015 µg/mL
K. pneumoniae NCTC 13439; NCTC13439, agent alone, enzymes VIM-1, read-out: MIC
  MIC: > 32 µg/mL
K. pneumoniae NCTC 13439; NCTC13439, with compound of Formula (I) at 8 mcg/ml, read-out: MIC (mcg/ml) of cefepime in presence of a compound of Formula (I) (8 mcg/ml)
  MIC: 1 µg/mL
K. pneumoniae B 88; B88, agent alone, enzymes SHV, TEM, NDM-1, read-out: MIC
  MIC: > 32 µg/mL
K. pneumoniae B 88; B88, with compound of Formula (I) at 8 mcg/ml, read-out: MIC (mcg/ml) of cefepime in presence of a compound of Formula (I) (8 mcg/ml)
  MIC: ≤ 0.015 µg/mL
P. aeruginosa S 513; S513, agent alone, enzymes VIM-6, read-out: MIC
  MIC: > 32 µg/mL
P. aeruginosa S 513; S513, with compound of Formula (I) at 8 mcg/ml, read-out: MIC (mcg/ml) of cefepime in presence of a compound of Formula (I) (8 mcg/ml)
  MIC: ≤ 0.06 µg/mL
P. aeruginosa S 508; S508, agent alone, enzymes VIM-11, read-out: MIC
  MIC: > 32 µg/mL
P. aeruginosa S 508; S508, with compound of Formula (I) at 8 mcg/ml, read-out: MIC (mcg/ml) of cefepime in presence of a compound of Formula (I) (8 mcg/ml)
  MIC: ≤ 0.06 µg/mL
K. pneumoniae M 3; M3, agent alone, enzymes SHV, CTXM, TEM, NDM-1, read-out: MIC
  MIC: > 32 µg/mL
K. pneumoniae M 3; M3, with compound of Formula (I) at 8 mcg/ml, read-out: MIC (mcg/ml) of cefepime in presence of a compound of Formula (I) (8 mcg/ml)
  MIC: ≤ 0.015 µg/mL
P. aeruginosa Q-111; Q111, agent alone, enzymes OXA-4, OXA-11, read-out: MIC
  MIC: > 32 µg/mL
P. aeruginosa Q-111; Q111, with compound of Formula (I) at 8 mcg/ml, read-out: MIC (mcg/ml) of cefepime in presence of a compound of Formula (I) (8 mcg/ml)
  MIC: ≤ 0.06 µg/mL
[2]; 2 hours
  Bacterial count: 6.17 Log CFU/ml
[2]; 4 hours
  Bacterial count: 7.11 Log CFU/ml
[2]; 6 hours
  Bacterial count: 8.69 Log CFU/ml
[2]; [5]
  Change in bacterial count (in words): no decrease in bacterial count was observed
[3]; 2 hours
  Bacterial count: 6.9 Log CFU/ml
[3]; 4 hours
  Bacterial count: 8.23 Log CFU/ml
[3]; 6 hours
  Bacterial count: 8.23 Log CFU/ml
[3]; [5]
  Change in bacterial count (in words): no decrease in bacterial count was observed
[4]; agent alone, resistant strains of E. coli, K. pneumonia and P. aeruginosa
  MICs (range over the strains): 16 to 64 µg/mL
[4]; with compound of Formula (I) at 8 mcg/ml
  MIC values of cefepime in presence of the compound of Formula (I) (range over the strains): 0.015 to 1 µg/mL
